Marks after values point to notes of the source that are not given here.
Experiments:
[1] = tested on: TNF-α production from THP-1 cells; adenosine receptors A1R, A2AR, A2BR, A3R; assay: TNF-α production from THP-1 cells, LPS + IFN-γ, ANO with adenosine receptor antagonists (Experiment 5); type: cell-based; details: LPS + human IFN-γ, ANO 5 μM
Description: USA; ZM241385, commercialized by Tocris Bioscience, MSY USA; MRS1754, commercialized by Sigma-Aldrich Corporation, St. Louis, Mo. […] The results are in Table 5 in parallel.

[2] = tested on: mice with bacterial shock induced by LPS; assay: LPS bacterial shock mice, survival, oral administration (Experiment 10); type: in vivo, BALB/c mice; details: LPS 18 mg/kg i.p.
[3] = tested on: BALB/c mice; assay: Acute toxicity test, intraperitoneal (Experiment 20); details: mouse, in vivo, ip
Experimental: As a control, only PBS was intraperitoneally administered to 10 BALB/c mice (6-week-old, female, average weight of 20 g, commercialized by Charles River Laboratories Japan Inc., Tokyo, Japan) at a dose of 1 mL/head, followed by observing the course of the mice for 24 hours.

[4] = tested on: skin of volunteers irradiated with ultraviolet rays; assay: Volunteer test of creams: pigmentation (visual score, melanin index) after ultraviolet rays; type: in vivo, human; details: cream thrice a day for 28 days
Experimental: Melanin index was measured on “CM-700d”, a spectrophotometer commercialized by Konica Minolta Holdings, Inc., Tokyo, Japan.
In was confirmed that there were no spots and wounds in the inside of the left upper arm in each volunteer. On the day of initiating the test, four sites in the test part of each volunteer were irradiated with 1.5-times of the minimum erythemogenic dose of ultraviolet rays (UVB). The area of the irradiated site was in the range of 1×1 cm applied with each test sample. […]
From the day of initiating the irradiation of ultraviolet rays until seven days after the initiation, the test parts were visually observed and photographed by a digital camera every day, and the day, on which the erythema in the part irradiated with ultraviolet rays become unobserved, was confirmed and the days until the unobserved day for each creams were averaged and shown in Table 26. At 24 hours after the irradiation of ultraviolet rays, the degree of erythema in the part applied with each cream was scored based on the three grades of “strong (2)”, “no difference (0)”, and “weak (−2)” compared to the part applied with Cream 3, summed up the scores for each cream, and averaged. […] On 28 days after initiating the irradiation of ultraviolet rays, visual judgement on the part irradiated with ultraviolet rays and the melanin index were measured to confirm the degree of pigmentation. […]

Nc1c2ncn([C@@H]3O[C@H](CO)[C@@H](O)[C@H]3O)c2nc[n+]1[O-] [ANO, adenosine N1-oxide]
TNF-α Concentration ([1]; no antagonist): 97 pg/mL | TNF-α Concentration ([1]; pretreated with DPCPX 0.5 μM): 132** pg/mL | TNF-α Concentration ([1]; pretreated with DPCPX 1 μM): 130** pg/mL | TNF-α Concentration ([1]; pretreated with DPCPX 5 μM): 129** pg/mL | TNF-α Concentration ([1]; pretreated with DPCPX 10 μM): 133** pg/mL | TNF-α Concentration ([1]; pretreated with MRS1220 0.5 μM): 105** pg/mL | TNF-α Concentration ([1]; pretreated with MRS1220 1 μM): 105** pg/mL | TNF-α Concentration ([1]; pretreated with MRS1220 5 μM): 105** pg/mL | TNF-α Concentration ([1]; pretreated with MRS1220 10 μM): 102** pg/mL | TNF-α Concentration ([1]; pretreated with MRS1754 0.5 μM): 118** pg/mL | TNF-α Concentration ([1]; pretreated with MRS1754 1 μM): 121** pg/mL | TNF-α Concentration ([1]; pretreated with MRS1754 5 μM): 121** pg/mL | TNF-α Concentration ([1]; pretreated with MRS1754 10 μM): 103* pg/mL | TNF-α Concentration ([1]; pretreated with ZM241385 0.5 μM): 135** pg/mL | TNF-α Concentration ([1]; pretreated with ZM241385 1 μM): 137** pg/mL | TNF-α Concentration ([1]; pretreated with ZM241385 5 μM): 135** pg/mL | TNF-α Concentration ([1]; pretreated with ZM241385 10 μM): 132** pg/mL | Survival rate (%) of mice, 22 Hours ([2]; oral 400 mg/kg (200 × 2 shots)): 75% | Survival rate (%) of mice, 31 Hours ([2]; oral 400 mg/kg (200 × 2 shots)): 75% | Survival rate (%) of mice, 46 Hours ([2]; oral 400 mg/kg (200 × 2 shots)): 50% | Survival rate (%) of mice, 55 Hours ([2]; oral 400 mg/kg (200 × 2 shots)): 50% | Survival rate (%) of mice, 72 Hours ([2]; oral 400 mg/kg (200 × 2 shots)): 100% | Survival rate (%) of mice, 79 Hours ([2]; oral 400 mg/kg (200 × 2 shots)): 50% | Survival rate (%) of mice, 22 Hours ([2]; oral 600 mg/kg (200 × 3 shots)): 87.5% | Survival rate (%) of mice, 31 Hours ([2]; oral 600 mg/kg (200 × 3 shots)): 87.5% | Survival rate (%) of mice, 46 Hours ([2]; oral 600 mg/kg (200 × 3 shots)): 87.5% | Survival rate (%) of mice, 55 Hours ([2]; oral 600 mg/kg (200 × 3 shots)): 87.5% | Survival rate (%) of mice, 72 Hours ([2]; oral 600 mg/kg (200 × 3 shots)): 100% | Survival rate (%) of mice, 79 Hours ([2]; oral 600 mg/kg (200 × 3 shots)): 75% | LD50 [3]: ≥ 1,000 mg/kg body weight | change in appearance after administration [3]: no change in appearance | safeness when applied to the skin (red flare, eczema) [4]: induced no red flare, eczema, etc.

Source: US9757408B2 (Hayashibara Co., Ltd., priority 2010, dated 2017)
